Experimental findings from patent US20070117770A1, “Human ribosomal DNA (rDNA) and ribosomal RNA (rRNA) nucleic acids and uses thereof” (Cylene Pharmaceuticals, Inc., priority 2005, published 2007) are described below.

One assay deals with Rsk1(h) (Homo sapiens, UniProt Q15418). Kind of assay: Protein kinase inhibition assay. The assay is classed as biochemical. Conditions: read-out: percent residual activity of Rsk1(h). The procedure: (§1) Certain compounds were tested for activity in protein kinase inhibition assays. All substrates were dissolved and diluted to working stocks in de-ionized water, apart from histone H1 (10× working stock in 20 mM MOPS pH 7.0), PDKtide (10× working stock in 50 mM Tris pH 7.0) ATF2 (which is typically stored at a 20× working stock in 50 mM Tris pH 7.5, 150 mM NaCl, 0.1 mM EGTA, 0.03% Brij-35, 50% glycerol, 1 mM benzamidine, 0.2 mM PMSF and 0.1% R-mercaptoethanol), KKLNRTLSFAEPG (SEQ ID NO:203) and RRRLSFAEPG (SEQ ID NO:204) (50 mM HEPES pH 7.4) and GGEEEEYFELVKKKK (SEQ ID NO:205) (20 mM MOPS pH 7.0). All kinases were pre-diluted to a 10× working concentration prior to addition into the assay. The composition of the dilution buffer for each kinase is detailed below.
Chain of Rsk1(h) (Q15418 whole entry): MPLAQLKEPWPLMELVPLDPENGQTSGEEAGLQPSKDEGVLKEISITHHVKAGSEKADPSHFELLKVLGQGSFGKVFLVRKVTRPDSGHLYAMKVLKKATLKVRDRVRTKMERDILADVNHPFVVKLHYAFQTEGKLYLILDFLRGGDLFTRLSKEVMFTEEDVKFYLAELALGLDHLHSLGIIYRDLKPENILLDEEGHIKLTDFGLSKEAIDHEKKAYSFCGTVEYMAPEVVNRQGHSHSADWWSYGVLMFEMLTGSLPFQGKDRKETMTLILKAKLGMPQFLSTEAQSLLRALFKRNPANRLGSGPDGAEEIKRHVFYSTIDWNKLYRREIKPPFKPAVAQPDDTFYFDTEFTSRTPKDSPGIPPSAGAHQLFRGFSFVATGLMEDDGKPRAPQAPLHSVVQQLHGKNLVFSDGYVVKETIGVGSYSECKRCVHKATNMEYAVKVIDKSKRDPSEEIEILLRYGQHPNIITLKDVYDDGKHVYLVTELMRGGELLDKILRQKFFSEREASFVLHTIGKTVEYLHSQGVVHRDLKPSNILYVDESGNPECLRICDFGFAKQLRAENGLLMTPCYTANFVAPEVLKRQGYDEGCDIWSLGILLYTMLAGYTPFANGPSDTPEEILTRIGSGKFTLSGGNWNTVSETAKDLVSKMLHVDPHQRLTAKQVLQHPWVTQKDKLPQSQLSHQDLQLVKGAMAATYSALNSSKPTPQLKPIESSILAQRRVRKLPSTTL
(§2) In a final reaction volume of 25 μl, Rsk1 (h) (5-10 mU) is incubated with 8 mM MOPS pH 7.0, 0.2 mM EDTA, 30 μM KKKNRTLSVA (SEQ ID NO:212), 10 mM MgAcetate and [gamma-33P-ATP] (specific activity approx. 500 cpm/pmol, concentration as required). The reaction is initiated by the addition of the MgATP mix. After incubation for 40 minutes at room temperature, the reaction is stopped by the addition of 5 μl of a 3% phosphoric acid solution. 10 μl of the reaction is then spotted onto a P30 filtermat and washed three times for 5 minutes in 75 mM phosphoric acid and once in methanol prior to drying and scintillation counting.

The next assay deals with PKCγ(h) (Homo sapiens, UniProt P05129). Kind of assay: Protein kinase inhibition assay. Type of assay: biochemical. Conditions: read-out: percent residual activity of PKCγ(h). The procedure:
as §1
In a final reaction volume of 25 μl, PKCγ (h) (5-10 mU) is incubated with 20 mM HEPES pH 7.4, 0.03% Triton X-100, […], 0.1 mg/ml phosphatidylserine, 10 μg/ml diacylglycerol, 0.1 mg/ml histone H1, 10 mM MgAcetate and [gamma-33P-ATP] (specific activity approx. 500 cpm/pmol, concentration as required). The reaction is initiated by the addition of the MgATP mix. After incubation for 40 minutes at room temperature, the reaction is stopped by the addition of 5 μl of a 3% phosphoric acid solution. […]

For the next assay, the target named is CK1δ(h) (Homo sapiens, UniProt P48730). The assay is described as follows: Protein kinase inhibition assay. Conditions: read-out: percent residual activity of CK1δ(h). The assay is classed as biochemical. Here is the method:
as §1
as §2, with “μl, CK1δ” for “μl, Rsk1”, “EDTA, 200” for “EDTA, 30”, “μM KRRRALS(p)VASLPGL” for “μM KKKNRTLSVA”, “ID NO:214),” for “ID NO:212),”

In the next assay the target is JAK3(h) (Homo sapiens, UniProt P52333). Kind of assay: Protein kinase inhibition assay. Particulars: read-out: percent residual activity of JAK3(h). Type of assay: biochemical. The procedure: as §1
Chain of JAK3(h) (P52333 whole entry): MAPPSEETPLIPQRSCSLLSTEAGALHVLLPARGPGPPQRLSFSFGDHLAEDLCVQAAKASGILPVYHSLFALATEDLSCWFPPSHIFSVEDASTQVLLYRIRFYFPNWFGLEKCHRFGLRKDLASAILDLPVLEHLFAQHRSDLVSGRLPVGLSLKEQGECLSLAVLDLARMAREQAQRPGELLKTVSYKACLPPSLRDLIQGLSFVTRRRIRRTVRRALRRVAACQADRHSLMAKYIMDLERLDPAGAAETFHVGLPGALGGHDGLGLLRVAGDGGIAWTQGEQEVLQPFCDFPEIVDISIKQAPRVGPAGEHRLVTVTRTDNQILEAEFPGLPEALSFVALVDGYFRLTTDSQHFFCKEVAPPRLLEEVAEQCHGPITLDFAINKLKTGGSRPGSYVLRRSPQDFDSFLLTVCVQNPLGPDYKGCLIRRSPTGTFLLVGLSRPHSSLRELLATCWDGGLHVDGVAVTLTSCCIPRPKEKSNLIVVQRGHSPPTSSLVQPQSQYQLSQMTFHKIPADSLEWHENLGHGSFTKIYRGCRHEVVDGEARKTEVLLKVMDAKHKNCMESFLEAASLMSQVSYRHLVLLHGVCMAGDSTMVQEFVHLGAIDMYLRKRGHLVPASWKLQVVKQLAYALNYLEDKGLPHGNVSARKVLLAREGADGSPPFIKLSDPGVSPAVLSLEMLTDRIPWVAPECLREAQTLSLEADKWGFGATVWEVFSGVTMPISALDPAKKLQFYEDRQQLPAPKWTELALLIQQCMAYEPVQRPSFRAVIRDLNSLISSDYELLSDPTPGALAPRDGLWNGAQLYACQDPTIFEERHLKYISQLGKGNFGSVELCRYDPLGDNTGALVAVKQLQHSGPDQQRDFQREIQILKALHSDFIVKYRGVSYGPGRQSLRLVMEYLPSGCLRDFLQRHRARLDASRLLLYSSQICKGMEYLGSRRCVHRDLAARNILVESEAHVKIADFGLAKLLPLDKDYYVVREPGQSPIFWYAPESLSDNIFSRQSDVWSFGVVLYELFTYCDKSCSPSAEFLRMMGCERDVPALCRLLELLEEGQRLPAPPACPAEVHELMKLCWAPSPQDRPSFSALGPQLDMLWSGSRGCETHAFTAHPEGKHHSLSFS
as §2, with “μl, JAK3” for “μl, Rsk1”, “EDTA, 500” for “EDTA, 30”, “μM GGEEEEYFELVKKKK” for “μM KKKNRTLSVA”, “ID NO:218),” for “ID NO:212),”

A further assay addresses PAK6(h) (Homo sapiens, UniProt Q9NQU5). Kind of assay: Protein kinase inhibition assay. Type of assay: biochemical. Conditions: read-out: percent residual activity of PAK6(h). Here is the method: as §1
as §2, with “μl, PAK6” for “μl, Rsk1”, “EDTA, 200” for “EDTA, 30”, “μM RRRLSFAEPG” for “μM KKKNRTLSVA”, “ID NO:223),” for “ID NO:212),”, “and [y-33P-ATP]” for “and [gamma-33P-ATP]”

For another assay, the system named is HCT116 cells. The assay is described as follows: DNA synthesis (BrdU-ELISA). The assay is classed as cell-based. Particulars: for A-1 a concentration at which many of the cells were dead. Here is the method: Effects of compound A-1 and compound B-1 on DNA synthesis, RNA synthesis and protein synthesis were determined in HCT116 cells. HCT116 cells were plated overnight at 100,000 cells per mL. Next day cells were treated with increasing amounts of either compound A-1 or compound B-1 followed by one hour incubation with BrdU label (from a BrdU Cell proliferation Assay Kit, Calbiochem) to monitor DNA synthesis; […] of ^3H-uridine to monitor total RNA synthesis; […] of ^3H-methionine to monitor protein synthesis or plain media to monitor RNA Polymerase II-dependent RNA synthesis. DNA synthesis was assessed using a BrdU-ELISA (BrdU Cell proliferation Assay Kit, Calbiochem). To measure total RNA synthesis, total RNA from treated cells was isolated with a RNease kit (QIAGEN), levels of total RNA were assessed with Ribogreen reagent (Invitrogen) and the newly synthesized tritiated RNA was measured in a scintillation Counter (Perkin Elmer). To measure effects on protein synthesis, cells were lysed in a RIPA buffer, and total protein was precipitated with 10% TCA on a glass-filters. Newly synthesized tritiated protein was measured in a scintillation Counter (Perkin Elmer). Effects of drugs on […] RNA synthesis were assessed by monitoring levels of a c-myc mRNA, which has a relatively short half-life of approximately 30 minutes, by Taqman qRT-PCR (ABI).

Chain of CK1δ(h) (P48730 whole entry): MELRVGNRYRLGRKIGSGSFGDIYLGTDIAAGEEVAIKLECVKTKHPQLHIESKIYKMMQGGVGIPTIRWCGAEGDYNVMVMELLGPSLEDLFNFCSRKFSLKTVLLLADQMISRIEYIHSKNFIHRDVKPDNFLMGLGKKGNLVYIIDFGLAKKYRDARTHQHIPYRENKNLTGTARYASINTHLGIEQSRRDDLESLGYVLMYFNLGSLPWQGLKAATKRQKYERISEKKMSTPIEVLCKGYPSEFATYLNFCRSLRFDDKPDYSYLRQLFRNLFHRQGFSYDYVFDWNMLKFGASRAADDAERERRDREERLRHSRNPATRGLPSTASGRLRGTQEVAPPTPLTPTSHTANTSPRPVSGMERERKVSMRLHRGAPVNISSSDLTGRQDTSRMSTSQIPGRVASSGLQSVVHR
Chain of PAK6(h) (Q9NQU5 whole entry): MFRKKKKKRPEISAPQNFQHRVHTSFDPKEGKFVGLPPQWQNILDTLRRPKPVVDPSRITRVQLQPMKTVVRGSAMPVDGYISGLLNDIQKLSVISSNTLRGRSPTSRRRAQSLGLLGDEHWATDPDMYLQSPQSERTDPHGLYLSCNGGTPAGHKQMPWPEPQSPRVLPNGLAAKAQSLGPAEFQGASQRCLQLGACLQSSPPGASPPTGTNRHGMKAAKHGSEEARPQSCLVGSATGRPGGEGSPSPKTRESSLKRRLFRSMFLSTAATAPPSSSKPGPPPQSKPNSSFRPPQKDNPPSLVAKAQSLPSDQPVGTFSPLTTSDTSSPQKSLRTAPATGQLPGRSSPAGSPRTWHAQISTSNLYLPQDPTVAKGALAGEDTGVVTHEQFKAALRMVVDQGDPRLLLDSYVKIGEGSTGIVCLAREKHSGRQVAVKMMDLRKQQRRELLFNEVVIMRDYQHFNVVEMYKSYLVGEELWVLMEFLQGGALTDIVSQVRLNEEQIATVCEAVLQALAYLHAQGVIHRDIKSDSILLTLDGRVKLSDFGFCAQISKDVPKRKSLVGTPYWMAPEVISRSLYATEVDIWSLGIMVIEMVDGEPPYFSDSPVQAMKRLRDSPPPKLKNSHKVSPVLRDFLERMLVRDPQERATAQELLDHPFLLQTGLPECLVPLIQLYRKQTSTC

With `CN1CCCC1CCNC(=O)c1cn2c3c(c(N4CCC(c5cnccn5)C4)c(F)cc3c1=O)Oc1cc3ccccc3cc1-2` (stereo not drawn) [Compound A-1], the remaining activity at 2.5 µM on Rsk1(h) was found to be 85%; on PKCγ(h) it was 110%; at CK1δ(h), 87%; at JAK3(h), 112%; on PAK6(h) it was 123%. Besides, in the assay with HCT116 cells, the concentration that significantly reduced DNA synthesis turned out to be 10 µM.
In the case of `CC(=O)N1CCN(c2ccc3c(=O)c(C(=O)NCCN4CCCC4)c4n(C)c5ccccc5n4c3n2)CC1` [Compound B-1], the remaining activity at 2.5 µM is 103% on Rsk1(h); 102% on PKCγ(h); 92% on CK1δ(h); 109% at JAK3(h); 112% at PAK6(h). The concentration that significantly reduced DNA synthesis in the assay on HCT116 cells was determined as 30 µM.
